Data: ChEMBL document CHEMBL2401725, “Synthesis of new chromeno-annulated cis-fused pyrano[4,3-c]isoxazole derivatives via intramolecular nitrone cycloaddition and their cytotoxicity evaluation” (Bioorg Med Chem Lett, 2013)

Columns and labels:
Assay type in all cases: functional, cell-based
[1] = test system: HeLa; assay: Cytotoxicity against human HeLa cells by MTT assay
[2] = test system: MCF7; assay: Cytotoxicity against human MCF7 cells by MTT assay
[3] = test system: MDA-MB-231; assay: Cytotoxicity against human MDA-MB-231 cells by MTT assay
[4] = test system: A549; assay: Cytotoxicity against human A549 cells by MTT assay

Row | Compound | IC50 [1] | IC50 [2] | IC50 [3] | IC50 [4]
1 | Cc1oc2c3c(ccc2c(=O)c1C)OC[C@H]1[C@@H]3N(Cc2ccccc2)OC1(C)C | > 100 µM | 5.78 µM | 14.5 µM | 17.9 µM
2 | Cc1oc2c3c(ccc2c(=O)c1C)OC[C@H]1[C@@H]3N(C2CCCCC2)OC1(C)C | > 100 µM | > 100 µM | 7.56 µM | 8.96 µM
3 | COc1ccc(CN2OC(C)(C)[C@H]3COc4ccc5c(=O)c(C)c(C)oc5c4[C@H]32)cc1 | > 100 µM | 5.59 µM | 7.81 µM | 11.2 µM
4 | Cc1ccc(CN2OC(C)(C)[C@H]3COc4ccc5c(=O)c(C)c(C)oc5c4[C@H]32)cc1 | 18.2 µM | 26.5 µM | 5.64 µM | 8.92 µM
5 | Cc1oc2c3c(ccc2c(=O)c1C)OC[C@H]1[C@@H]3N(Cc2ccc(C(C)C)cc2)OC1(C)C | > 100 µM | 7.96 µM | 6.25 µM | > 100 µM
6 | Cc1oc2c3c(ccc2c(=O)c1C)OC[C@H]1[C@@H]3N(Cc2ccc(F)cc2)OC1(C)C | 9.54 µM | 10.1 µM | 7.9 µM | 12.8 µM
7 | Cc1coc2c3c(ccc2c1=O)OC[C@H]1[C@@H]3N(Cc2ccccc2)OC1(C)C | 6.61 µM | > 100 µM | > 100 µM | > 100 µM
8 | COc1ccc(CN2OC(C)(C)[C@H]3COc4ccc5c(=O)c(C)coc5c4[C@H]32)cc1 | 6.54 µM | 7.38 µM | > 100 µM | 29.4 µM
9 | Cc1coc2c3c(ccc2c1=O)OC[C@H]1[C@@H]3N(C2CCCCC2)OC1(C)C | 17.5 µM | 22.7 µM | 17.4 µM | 0.194 µM
10 | Cc1ccc(CN2OC(C)(C)[C@H]3COc4ccc5c(=O)c(C)coc5c4[C@H]32)cc1 | > 100 µM | 5.3 µM | > 100 µM | > 100 µM
11 | COc1ccc(CN2OC(C)(C)[C@H]3COc4ccc5c(=O)c(-c6ccccc6)c(C)oc5c4[C@H]32)cc1 | > 100 µM | > 100 µM | > 100 µM | > 100 µM
12 | COc1cccc2c1C(=O)c1c(O)c3c(c(O)c1C2=O)C[C@@](O)(C(=O)CO)C[C@@H]3O[C@H]1C[C@H](N)[C@H](O)[C@H](C)O1 [DOXORUBICIN] | 0.451 µM | 1.05 µM | 0.501 µM | 1.21 µM
